In brackets after ≈: the same amount, converted by molar mass.
Tests used:
[1] = tested on: MCF-7 breast cancer cells; details: read-out: IC50 MCF-7; literature hybrids 5-7 and 5-FU; cited from earlier work
MDA-MB-231 = test: MTT cytotoxicity assay on MDA-MB-231; type: cell-based
Caco-2 = test: MTT cytotoxicity assay on Caco-2; type: cell-based; details: Homo sapiens, Caco-2, read-out: IC50 Caco-2
HEK-293 = test: MTT cytotoxicity assay on non-cancerous HEK-293; type: cell-based; details: Homo sapiens, HEK293, read-out: IC50 HEK-293

O=c1[nH]cc(F)c(=O)[nH]1 [Compound 5-FU, 5-FU]
IC50 [1]: 12.4 µM

Cc1ccc(CNC(=O)Cn2cc(CSc3nc4ccccc4[nH]3)nn2)cc1 [Compound 11]
IC50 (MDA-MB-231; Homo sapiens, MDA-MB-231, read-out: IC50 MDA-MB-231): 68.3 ± 3.1 µg/mL (≈ 174 µM) | SI HEK/MDA (MDA-MB-231; selectivity index, HEK-293 vs MDA-MB-231): 0.93 | IC50 (Caco-2): 63.8 ± 1.09 µg/mL (≈ 163 µM) | IC50 (HEK-293): 63.4 ± 2.5 µg/mL (≈ 162 µM)

Source: publication PMC12679356 (RSC Advances, 2025)
